{"source": "patent US20240228572A1", "about": "(i2o Therapeutics, Inc., priority 2020, published 2024)", "key": {"[1]": {"experiment": "Stability in subcutaneous (SC) tissue homogenates, rat", "type": "in vitro ADME", "conditions": "subcutaneous (SC) tissue homogenate, pH 7.4, read-out: (H)SC tissue stability t½ (converted)", "experimental": "In vitro incubations in subcutaneous (SC) tissue homogenates were used to characterize the ability of peptides to resist pre-systemic degradation by proteases and peptidases after SC administration. In vivo nonclinical studies have shown that peptidase activity in the SC space can limit the bioavailability of a peptide after SC administration. Peptides with high SC bioavailability are stable in this assay, while peptides with low SC bioavailability are unstable in this assay.\nHuman SC tissue was homogenized in cold 25 mM HEPES buffer (pH 7.4, 10-fold volume based on sample weight), and then filtered through a double layer of cheesecloth. The filtrates were aliquoted, flash frozen on a methanol/dry ice bath and stored at −80° C. The protein concentration of each pooled batch was determined using the BCA protein assay. Thawed stocks of human SC tissue homogenates were diluted to 1.0 mg protein/mL in 25 mM HEPES buffer (pH 7.4) and aliquoted into a 96-well plate. The diluted SC homogenates were pre-warmed for 10 minutes at 37° C. Reactions were initiated by the addition of test peptide (10 mcM final concentration) also dissolved in 25 mM HEPES buffer (pH 7.4). Reactions were maintained at 37° C. in a shaking water bath. […] Samples were analyzed by UPLC-MS/MS."}, "[2]": {"experiment": "Metabolic stability in monkey kidney brush border membranes (kBBM)", "type": "in vitro ADME", "conditions": "pH 7.4, read-out: kBBM t½", "experimental": "Brush border membranes from rat and human kidney tissue were prepared via centrifugation and stored at −70° C. Thawed stocks of rat or human kBBM were diluted to the appropriate concentration in 25 mM HEPES buffer (pH 7.4) containing 1% casein and aliquoted into a 96-well plate. The kBBM solutions were pre-warmed for 10 minutes at 37° C. Reactions were initiated by the addition of test peptide (1 mcM final concentration) also dissolved in 25 mM HEPES buffer (pH 7.4) containing 1% casein. The final concentration of kBBM in each incubation was 50 mcg protein/mL. Reactions were maintained at 37° C. in a shaking water bath. At 0, 0.25, 0.5, 1.0, 2.0, and 4.0 h post-initiation, 30 mcL of the reaction mixture was removed and placed into a 96-well plate containing 120 mcL of ice-cold methanol containing 2.5% formic acid. Quenched samples were centrifuged at 2178×g for 10 min and then a portion of the supernatants were transferred to a clean 96-well plate and diluted 1:1 with water."}}, "note": "*1 amine or outer side, *2 acyl side, *3 side chain or, on linkers, in order; H or OH if unused. Where a SMILES comes first, the peptide text is derived from it. Side-chain parts run from the residue outwards. [ ]: non-standard residue; d: D form. The star is where a group is joined. C20 diacid = O=C(O)CCCCCCCCCCCCCCCCCCC(=O)*; γGlu = O=C(O)[C@H](CCC(=O)[*:2])N[*:1]; AEEA = NCCOCCOCC(=O)O; Aib = CC(C)(N)C(=O)O"}
{"smiles": "CC(C)C[C@H](NC(=O)[C@H](Cc1ccc(O)cc1)NC(=O)[C@H](CCCCN)NC(=O)[C@H](CO)NC(=O)[C@H](Cc1ccc(O)cc1)NC(=O)[C@H](CC(=O)O)NC(=O)[C@H](CO)NC(=O)[C@@H](NC(=O)[C@H](Cc1ccccc1)NC(=O)[C@@H](NC(=O)CNC(=O)[C@H](Cc1c[nH]cn1)NC(=O)[C@H](CO)NC(=O)[C@@H](N)Cc1ccc(O)cc1)[C@@H](C)O)[C@@H](C)O)C(=O)N[C@@H](CC(=O)O)C(=O)NC(C)(C)C(=O)N[C@@H](CCCCN)C(=O)N[C@@H](Cc1ccc(O)cc1)C(=O)N[C@@H](C)C(=O)N[C@@H](CCC(N)=O)C(=O)N[C@@H](CCCCNC(=O)CC[C@H](NC(=O)CC[C@H](NC(=O)COCCOCCNC(=O)CCCCCCCCCCCCCCCCCCC(=O)O)C(=O)O)C(=O)O)C(=O)N[C@@H](Cc1ccccc1)C(=O)N[C@H](C(=O)NC(C)(C)C(=O)N[C@@H](Cc1c[nH]c2ccccc12)C(=O)N[C@@H](CC(C)C)C(=O)N[C@@H](CCC(=O)O)C(=O)N[C@@H](CC(=O)O)C(=O)N[C@@H](CCC(=O)O)C(=O)N1CCC[C@H]1C(=O)N[C@@H](CO)C(=O)N[C@@H](CO)C(=O)NCC(=O)N[C@@H](C)C(=O)N1CCC[C@H]1C(=O)N1CCC[C@H]1C(=O)N1CCC[C@H]1C(=O)N[C@@H](CO)C(=O)O)C(C)C", "note": "[Compound A6] (H-YSHGTFTSDYSKYLD[Aib]KYAQK([γGlu-γGlu-AEEA-C20 diacid])FV[Aib]WLEDEPSSGAPPPS-OH; N-terminus assumed)", "values": [{"measurement": "half-life at 10 mcM", "setting": "[1]", "value": 9, "unit": "h"}, {"measurement": "half-life at 1 mcM", "setting": "[2]", "value": "> 12", "unit": "h"}]}
